Marks after values point to notes of the source that are not given here.
Legend:
in vivo anesthetized rat = experiment: Ischemia-induced arrhythmias in the anesthetized rat (30 minutes coronary occlusion)
Protocol: Myocardial ischemia was performed by a temporary tightening of the silk ligature around the left main coronary artery. Reperfusion was achieved by releasing the tension applied to the ligature (operated groups). Sham operated animals underwent all surgical procedures, apart from the fact that the silk, passing around the left coronary artery, was not tied (sham groups). Animals were infused with a bolus of THP (3.5x10^-7, 3.5x10^-6, 3.5x10^-5 g/kg), L-NAME (N^∞-nitro-L-arginine methyl ester; 1x10^-3 g/kg) or vehicle (dimethyl sulfoxide/ NaCl 0.9%, 1:10^3; v/v) from a jugular vein 15 minutes before coronary occlusion. The coronary artery was occluded for 30 minutes or 5 minutes followed by 30 minutes reperfusion and with the animals then divided randomly in the following groups: (1) sham + vehicle; (2) sham + THP (3.5x10^-5g/kg); (3) operated + vehicle; (4) operated + THP (3.5x10^-7 g/kg); (5) operated + THP (3.5x10^-6 g/kg); (6) operated + THP (3.5x10^-5 g/kg); (7) operated + L-NAME (1x10^-3 g/kg) + THP (3.5x10^-5 g/kg). Before and during the ischemia or reperfusion period, heart rate (HR), blood pressure (BP) and ECG changes were recorded. Ventricular ectopic activity was evaluated according to the diagnostic criteria advocated in the Lambeth Convention. The incidence and duration of ventricular tachyarrhythmias, including ventricular tachycardia (VT) and ventricular fibrillation (VF), in surviving animals was determined. The Mann-Whitney rank-sum test was used to analyze the differences in the duration of VT and VF between vehicle and drug treated groups. The BP and HR changes between vehicle and drug treated rats in the arrhythmia study were analyzed by ANOVA (analysis of variance) followed by Bonferroni's test. The difference in the percentage incidence of VT, VF and mortality rate was analyzed with a Chi-square test. Table 2 Effect of THP on ischemia-induced arrhythmias in the in vivo anesthetized rat
In ischemic condition, severe ventricular arrhythmias in the vehicle group begins after 6-7 minutes of coronary artery occlusion, peaks after 8-12 minutes, and normally subsides after approximately 15 minutes from initiation. The duration of VF is calculated to be 32.1±8.9 seconds, and the duration of VT is 36.8±8.8 seconds. […] Administration of THP at 3.5x10^-5 g/kg results in a decrease of the incidence of VT and VF to 10% and 0%, respectively (p<0.05). […] A particular important finding is the very effective reduction of mortality even at very low dose of THP 3.5x 10^-7 g/kg.

inward calcium current = details: Su MJ, et al., Eur. J. Pharmacol., 1994; cited from earlier work
AV node conduction = experiment: His bundle electrogram of isolated heart, Langendorff perfusion, atrial pacing at 300 ms cycle length; set-up: species or system rats and guinea pigs; details: for atrial effective refractory period (AERP): before drug THP 60 ms, quinidine 40 ms; for ventricular effective refractory period (VERP): before drug THP 160 ms, quinidine 180 ms; for AV node effective refractory period (AVNERP): before drug THP 170 ms, quinidine 130 ms; for wenckbach cycle length (WCL): before drug THP 200 ms, quinidine 150 ms
Protocol: The investigation conforms to the Guide for the Care and Use of Laboratory Animals published by the US National Institutes of Health (NIH publication No. 85-23, revised 1996). Adult rats and guinea pigs were killed after hepariniation and anesthetization with urethane (1.25 g/kg i.p.). After isolating the heart, the aorta was perfused with 10µM quinidine and THP, respectively, by Langendorff perfusion. A pair of bipolar electrodes connected with silver wire were placed on the tip of the Triangle of Koch to record the His bundle electrogram. In addition, another pair of bipolar electrodes connected with silver wire were placed on the surface of the right ventricle to record T wave. […] The QT interval, conduction time through the sinoatrial (SA interval), the atrioventricular node (AH interval) and His-purkinje system (HV interval) were recorded, respectively, using electrocardiograph. Similarly, the recovery curve of His-purkinje system (i.e. the relationship of H2V2 and V1H2), atrial and ventricular refractory period and AV node refractory period were also recorded in the same manner. 1 and 2.
The SA, AH, HV intervals and T wave are prolonged in the quinidine-treated heart (FIG. 1). […] In addition, 3, 10 and 30µM THP can prolong the atrial effective refractory period (AERP) from 60 ms to 90, 100 and 120 ms, respectively; the ventricular effective refractory period (VERP) from 160 ms to 160, 170 and 190 ms, respectively; and the AV node effective refractory period (AVNERP) from 170 ms to 170, 200 and 240 ms, respectively. When compared with THP in the same manner, 3,10 and 30µM quinidine can prolong the AERP from 40 ms to 60, 80 and 130 ms; the VERP from 180 ms to 170, 180 and 190 ms; and the AVNERP from 130 ms to 150, 200 and 245 ms, respectively. Further, 3, 10 and 30µM THP can change the wenckbach cycle length (WCL) from 200 ms to 210, 230 and 280 ms, respectively; whereas 3, 10 and 30µM quinidine can change the WCL from 150 ms to 170, 210 and 300 ms, respectively. Both THP and quinidine prolong AERP, VERP and AVNERP, however, only quinidine inhibits conduction in AV node (prolonged AH interval). In contrast, even when the THP concentration raised to 10µM, the conduction in AV node is not inhibited.

[1] = tested on: transient outward potassium current (Ito); experiment: Inhibition of transient outward potassium current; details: rats
Protocol: (§1) Moreover, 3-10µM THP prolongs the action potential duration in the atria or ventricles of both rats and guinea pigs (data not shown).

[2] = tested on: delayed outward potassium current (IK); experiment: Inhibition of delayed outward potassium current; details: guinea pigs
Protocol: as §1

## COc1cc2c(cc1OC)-c1c(O)c(OC)cc3c1C(C2)N(C)CC3 (single isomer, unassigned; (+)) [THP, (+)-Thaliporphine]
In vivo anesthetized rat; THP 3.5x10^-5 g/kg i.v.
  Mortality (%): 0%
  VF Duration: 0.0 ± 0.0 s
  VF Incidence(%): 0%
  VT Duration: 0.3 ± 0.3 s
  VT Incidence(%): 10%
In vivo anesthetized rat; THP 3.5x10^-6 g/kg i.v.
  Mortality (%): 0%
  VF Duration: 0.5 ± 0.5 s
  VF Incidence(%): 10%
  VT Duration: 5.7 ± 3.3 s
  VT Incidence(%): 50* %
In vivo anesthetized rat; THP 3.5x10^-7 g/kg i.v.
  Mortality (%): 0%
  VF Duration: 6.7 ± 4.9 s
  VF Incidence(%): 20%
  VT Duration: 16.1 ± 7.4 s
  VT Incidence(%): 60%
Inward calcium current
  inward calcium current: enhance
AV node conduction; 3µM
  atrial effective refractory period (AERP): 90 ms
  ventricular effective refractory period (VERP): 160 ms
  AV node effective refractory period (AVNERP): 170 ms
  wenckbach cycle length (WCL): 210 ms
AV node conduction; 10µM, isolated perfused heart
  AH interval (conduction in AV node): not inhibited
  HV interval: prolonged slightly
  SA interval: remains unaffected
AV node conduction; 10µM
  atrial effective refractory period (AERP): 100 ms
  ventricular effective refractory period (VERP): 170 ms
  AV node effective refractory period (AVNERP): 200 ms
  wenckbach cycle length (WCL): 230 ms
AV node conduction; 30µM
  atrial effective refractory period (AERP): 120 ms
  ventricular effective refractory period (VERP): 190 ms
  AV node effective refractory period (AVNERP): 240 ms
  wenckbach cycle length (WCL): 280 ms
[1]
  transient outward potassium current (Ito): markedly inhibit
[2]
  delayed outward potassium current (IK): markedly inhibit

— patent EP1311486B1, “USES OF THALIPORPHINE OR ITS DERIVATIVES IN TREATMENT OF CARDIAC DISEASES AND PREPARATION OF SAME” (Lotus Pharmaceutical Co., Ltd., priority 2000, dated 2002)
